Assay results as given in ChEMBL document CHEMBL1152560, “Substituted 2-arylbenzothiazoles as kinase inhibitors: hit-to-lead optimization” (Bioorg Med Chem, 2009).

Tests used:
[1] = molecular target: Cyclin-dependent kinase 5/CDK5 activator 1 (Homo sapiens) (UniProt Q00535+Q15078); assay: Residual activity of CDK5/p35NCK at 1 uM by microplate scintillation counting; format: protein-complex assay
[2] = molecular target: Tyrosine-protein kinase FRK (Homo sapiens) (UniProt P42685); assay: Residual activity of FRK at 1 uM by microplate scintillation counting
[3] = tested on: T1, Receptor-type tyrosine-protein kinase FLT3 (Homo sapiens), P36888 [D835Y]; assay: Residual activity of FLT3 D835Y mutant at 0.1 uM by microplate scintillation counting
T1 sequence (whole entry): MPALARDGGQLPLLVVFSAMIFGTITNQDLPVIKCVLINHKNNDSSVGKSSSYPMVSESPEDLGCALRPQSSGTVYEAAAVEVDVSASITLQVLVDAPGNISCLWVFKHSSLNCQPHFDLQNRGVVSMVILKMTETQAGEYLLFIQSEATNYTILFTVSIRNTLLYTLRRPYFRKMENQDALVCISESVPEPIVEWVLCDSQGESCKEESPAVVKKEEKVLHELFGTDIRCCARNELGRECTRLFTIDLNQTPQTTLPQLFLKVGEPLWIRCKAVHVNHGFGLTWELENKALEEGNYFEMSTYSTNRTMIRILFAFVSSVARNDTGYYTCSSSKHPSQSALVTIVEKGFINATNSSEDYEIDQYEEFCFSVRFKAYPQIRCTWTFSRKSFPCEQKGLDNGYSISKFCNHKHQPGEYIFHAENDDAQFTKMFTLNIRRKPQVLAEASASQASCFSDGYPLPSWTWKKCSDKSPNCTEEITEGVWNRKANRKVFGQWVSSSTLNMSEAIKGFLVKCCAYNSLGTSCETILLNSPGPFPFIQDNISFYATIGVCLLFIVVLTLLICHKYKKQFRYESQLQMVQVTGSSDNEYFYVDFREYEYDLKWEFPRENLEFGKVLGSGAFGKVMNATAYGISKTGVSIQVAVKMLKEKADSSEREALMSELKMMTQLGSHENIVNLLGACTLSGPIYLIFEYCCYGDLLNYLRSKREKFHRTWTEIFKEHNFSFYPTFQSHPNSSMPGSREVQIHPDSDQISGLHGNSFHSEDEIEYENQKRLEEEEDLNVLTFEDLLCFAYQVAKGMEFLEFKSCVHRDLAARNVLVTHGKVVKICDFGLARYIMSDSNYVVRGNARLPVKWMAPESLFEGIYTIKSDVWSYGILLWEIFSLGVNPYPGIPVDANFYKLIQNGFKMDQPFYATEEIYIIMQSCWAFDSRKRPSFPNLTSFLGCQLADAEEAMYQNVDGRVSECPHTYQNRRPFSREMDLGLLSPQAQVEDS

[4] = molecular target: Tyrosine-protein kinase Lyn (Homo sapiens) (UniProt P07948); assay: Residual activity of LYN at 0.1 uM by microplate scintillation counting
[5] = molecular target: Ribosomal protein S6 kinase beta-2 (Homo sapiens) (UniProt Q9UBS0); assay: Residual activity of S6Kbeta at 1 uM by microplate scintillation counting
[6] = tested on: Fibroblast growth factor receptor 1 (Homo sapiens), P11362 [V561M]; assay: Residual activity of FGFR1 V561M mutant at 10 uM by microplate scintillation counting
[7] = molecular target: RAC-gamma serine/threonine-protein kinase (Homo sapiens) (UniProt Q9Y243); assay: Residual activity of AKT3 at 10 uM by microplate scintillation counting
[8] = molecular target: Protein kinase C delta type (Homo sapiens) (UniProt Q05655); assay: Residual activity of PKCdelta at 10 uM by microplate scintillation counting
[9] = molecular target: Casein kinase I isoform alpha (Homo sapiens) (UniProt P48729); assay: Residual activity of CK1alpha1 at 0.1 uM by microplate scintillation counting
[10] = molecular target: Ribosomal protein S6 kinase alpha-4 (Homo sapiens) (UniProt O75676); assay: Residual activity of RPS6KA4 at 10 uM by microplate scintillation counting
[11] = molecular target: Protein-tyrosine kinase 2-beta (Homo sapiens) (UniProt Q14289); assay: Residual activity of PYK2 at 0.1 uM by microplate scintillation counting
[12] = molecular target: T2, Testis-specific serine/threonine-protein kinase 1 (Homo sapiens) (UniProt Q9BXA7); assay: Residual activity of TSSK1 at 10 uM by microplate scintillation counting
T2 sequence (whole entry): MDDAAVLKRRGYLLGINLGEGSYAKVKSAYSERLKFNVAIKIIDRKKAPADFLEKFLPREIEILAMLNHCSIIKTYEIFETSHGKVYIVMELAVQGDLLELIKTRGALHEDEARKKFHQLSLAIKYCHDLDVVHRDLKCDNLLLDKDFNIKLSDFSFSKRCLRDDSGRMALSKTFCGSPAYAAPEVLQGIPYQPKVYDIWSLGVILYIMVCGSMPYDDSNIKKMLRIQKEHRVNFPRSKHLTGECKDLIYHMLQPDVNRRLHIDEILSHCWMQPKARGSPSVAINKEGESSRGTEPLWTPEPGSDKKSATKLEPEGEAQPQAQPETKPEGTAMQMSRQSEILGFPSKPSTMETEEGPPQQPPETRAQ

Casein kinase I isoform alpha (Homo sapiens), sequence (P48729 2-337 limits assumed): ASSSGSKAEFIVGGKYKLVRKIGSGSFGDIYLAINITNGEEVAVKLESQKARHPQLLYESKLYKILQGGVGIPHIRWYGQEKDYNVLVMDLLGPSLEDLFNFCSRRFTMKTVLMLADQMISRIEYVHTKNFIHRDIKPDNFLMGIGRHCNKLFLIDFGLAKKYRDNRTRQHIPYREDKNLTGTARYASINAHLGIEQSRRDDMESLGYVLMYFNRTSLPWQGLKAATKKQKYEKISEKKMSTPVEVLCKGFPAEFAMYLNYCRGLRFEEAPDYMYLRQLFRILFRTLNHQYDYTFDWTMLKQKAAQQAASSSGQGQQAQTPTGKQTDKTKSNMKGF
Ribosomal protein S6 kinase alpha-4 (Homo sapiens), sequence (O75676 whole entry, looked up): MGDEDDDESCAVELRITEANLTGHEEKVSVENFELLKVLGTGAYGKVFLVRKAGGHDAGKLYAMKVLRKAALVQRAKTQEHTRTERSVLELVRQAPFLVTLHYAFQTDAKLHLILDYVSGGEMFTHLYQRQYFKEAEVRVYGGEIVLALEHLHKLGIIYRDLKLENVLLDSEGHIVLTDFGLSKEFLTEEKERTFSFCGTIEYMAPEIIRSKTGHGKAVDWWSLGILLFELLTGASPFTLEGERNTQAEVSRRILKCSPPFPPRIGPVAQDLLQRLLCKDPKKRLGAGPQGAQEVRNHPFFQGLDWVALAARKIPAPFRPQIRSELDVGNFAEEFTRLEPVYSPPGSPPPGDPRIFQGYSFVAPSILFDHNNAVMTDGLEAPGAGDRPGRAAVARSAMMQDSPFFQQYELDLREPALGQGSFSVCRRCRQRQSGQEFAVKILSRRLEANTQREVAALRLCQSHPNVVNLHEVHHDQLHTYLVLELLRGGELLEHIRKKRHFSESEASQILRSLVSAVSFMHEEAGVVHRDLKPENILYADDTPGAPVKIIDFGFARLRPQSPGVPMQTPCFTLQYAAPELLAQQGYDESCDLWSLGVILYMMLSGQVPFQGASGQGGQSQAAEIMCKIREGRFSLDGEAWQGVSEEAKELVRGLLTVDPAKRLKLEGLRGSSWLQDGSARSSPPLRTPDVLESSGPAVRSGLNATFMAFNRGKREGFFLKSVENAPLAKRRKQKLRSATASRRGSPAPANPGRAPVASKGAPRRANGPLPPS
Tyrosine-protein kinase Lyn (Homo sapiens), sequence (P07948 2-512 limits assumed): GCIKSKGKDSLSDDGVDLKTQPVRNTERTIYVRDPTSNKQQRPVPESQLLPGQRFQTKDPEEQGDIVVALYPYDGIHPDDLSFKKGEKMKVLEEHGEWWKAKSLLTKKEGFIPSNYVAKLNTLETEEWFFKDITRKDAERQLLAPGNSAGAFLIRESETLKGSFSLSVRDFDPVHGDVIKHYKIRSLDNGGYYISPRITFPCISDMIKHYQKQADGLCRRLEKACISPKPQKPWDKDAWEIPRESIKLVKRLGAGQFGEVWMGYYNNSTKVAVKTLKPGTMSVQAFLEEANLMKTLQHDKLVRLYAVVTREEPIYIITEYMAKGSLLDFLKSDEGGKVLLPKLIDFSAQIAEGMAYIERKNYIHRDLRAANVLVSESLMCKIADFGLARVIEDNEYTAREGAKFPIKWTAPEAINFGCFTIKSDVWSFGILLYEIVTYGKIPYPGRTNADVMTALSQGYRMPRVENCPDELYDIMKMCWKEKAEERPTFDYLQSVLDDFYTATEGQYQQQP
Cyclin-dependent kinase 5/CDK5 activator 1 (Homo sapiens), sequence (Q00535 whole entry): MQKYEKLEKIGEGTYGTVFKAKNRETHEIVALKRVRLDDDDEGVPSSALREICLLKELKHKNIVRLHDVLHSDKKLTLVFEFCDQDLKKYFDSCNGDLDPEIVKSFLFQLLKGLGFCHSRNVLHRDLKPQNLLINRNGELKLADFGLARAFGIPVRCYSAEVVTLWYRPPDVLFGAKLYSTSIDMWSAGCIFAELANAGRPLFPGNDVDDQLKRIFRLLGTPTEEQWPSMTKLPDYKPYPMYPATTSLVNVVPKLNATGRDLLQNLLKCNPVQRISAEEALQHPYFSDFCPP
Cyclin-dependent kinase 5/CDK5 activator 1 (Homo sapiens), sequence (Q15078 99-307 partner limits assumed): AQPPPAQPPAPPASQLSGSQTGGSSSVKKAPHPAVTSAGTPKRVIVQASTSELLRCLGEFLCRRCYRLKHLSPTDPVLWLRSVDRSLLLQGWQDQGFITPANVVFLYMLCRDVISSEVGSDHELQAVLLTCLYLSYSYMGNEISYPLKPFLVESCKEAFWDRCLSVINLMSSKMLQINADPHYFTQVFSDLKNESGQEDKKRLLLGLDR
Ribosomal protein S6 kinase beta-2 (Homo sapiens), sequence (Q9UBS0 whole entry): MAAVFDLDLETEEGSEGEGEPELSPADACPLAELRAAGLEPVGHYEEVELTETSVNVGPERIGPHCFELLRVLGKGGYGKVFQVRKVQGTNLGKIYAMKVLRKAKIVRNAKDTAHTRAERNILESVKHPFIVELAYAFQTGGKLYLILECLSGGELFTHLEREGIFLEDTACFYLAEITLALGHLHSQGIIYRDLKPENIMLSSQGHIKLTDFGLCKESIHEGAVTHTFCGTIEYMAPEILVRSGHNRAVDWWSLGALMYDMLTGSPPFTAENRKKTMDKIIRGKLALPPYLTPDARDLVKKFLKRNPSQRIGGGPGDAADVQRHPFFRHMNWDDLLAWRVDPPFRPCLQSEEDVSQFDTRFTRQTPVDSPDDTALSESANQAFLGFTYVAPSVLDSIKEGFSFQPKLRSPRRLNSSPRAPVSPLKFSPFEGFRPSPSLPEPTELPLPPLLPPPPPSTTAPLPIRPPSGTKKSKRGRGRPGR
Tyrosine-protein kinase FRK (Homo sapiens), sequence (P42685 whole entry): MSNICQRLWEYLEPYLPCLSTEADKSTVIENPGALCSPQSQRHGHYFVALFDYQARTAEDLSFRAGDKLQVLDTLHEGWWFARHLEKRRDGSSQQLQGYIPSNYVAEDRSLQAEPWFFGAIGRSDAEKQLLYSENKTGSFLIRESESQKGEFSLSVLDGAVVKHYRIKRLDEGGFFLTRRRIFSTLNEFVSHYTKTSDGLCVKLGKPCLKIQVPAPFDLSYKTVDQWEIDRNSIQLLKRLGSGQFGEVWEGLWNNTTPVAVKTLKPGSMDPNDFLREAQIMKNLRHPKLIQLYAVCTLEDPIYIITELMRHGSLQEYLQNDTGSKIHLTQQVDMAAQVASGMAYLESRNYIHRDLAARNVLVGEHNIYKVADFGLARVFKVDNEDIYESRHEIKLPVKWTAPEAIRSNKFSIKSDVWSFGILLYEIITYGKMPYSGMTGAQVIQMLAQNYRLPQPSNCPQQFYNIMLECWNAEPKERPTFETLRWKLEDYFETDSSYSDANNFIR
Protein-tyrosine kinase 2-beta (Homo sapiens), sequence (Q14289 whole entry, looked up): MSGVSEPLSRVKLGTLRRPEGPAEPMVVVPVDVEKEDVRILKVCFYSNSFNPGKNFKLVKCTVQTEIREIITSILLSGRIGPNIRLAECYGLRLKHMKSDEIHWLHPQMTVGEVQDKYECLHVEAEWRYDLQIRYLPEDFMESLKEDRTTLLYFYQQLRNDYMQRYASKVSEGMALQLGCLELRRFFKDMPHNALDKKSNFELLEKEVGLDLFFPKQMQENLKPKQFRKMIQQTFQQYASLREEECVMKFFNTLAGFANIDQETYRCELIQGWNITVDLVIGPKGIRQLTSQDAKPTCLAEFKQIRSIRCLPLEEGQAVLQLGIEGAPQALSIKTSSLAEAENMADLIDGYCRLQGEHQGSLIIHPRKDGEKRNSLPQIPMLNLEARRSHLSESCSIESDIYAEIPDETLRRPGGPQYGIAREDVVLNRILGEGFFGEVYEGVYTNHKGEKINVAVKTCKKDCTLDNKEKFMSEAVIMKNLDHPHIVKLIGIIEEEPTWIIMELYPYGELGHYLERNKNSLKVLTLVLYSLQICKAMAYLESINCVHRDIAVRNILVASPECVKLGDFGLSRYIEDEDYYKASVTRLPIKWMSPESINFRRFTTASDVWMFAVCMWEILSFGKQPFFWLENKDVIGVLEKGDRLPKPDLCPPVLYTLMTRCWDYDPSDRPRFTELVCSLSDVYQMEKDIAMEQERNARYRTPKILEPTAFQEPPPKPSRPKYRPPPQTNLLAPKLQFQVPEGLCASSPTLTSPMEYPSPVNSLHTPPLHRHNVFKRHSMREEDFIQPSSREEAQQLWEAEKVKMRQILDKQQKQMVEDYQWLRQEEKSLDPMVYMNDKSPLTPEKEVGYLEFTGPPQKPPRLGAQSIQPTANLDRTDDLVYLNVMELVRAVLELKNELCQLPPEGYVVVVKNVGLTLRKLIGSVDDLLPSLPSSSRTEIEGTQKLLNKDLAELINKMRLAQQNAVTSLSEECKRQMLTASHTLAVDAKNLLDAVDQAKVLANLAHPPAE
Protein kinase C delta type (Homo sapiens), sequence (Q05655 whole entry, looked up, canonical isoform): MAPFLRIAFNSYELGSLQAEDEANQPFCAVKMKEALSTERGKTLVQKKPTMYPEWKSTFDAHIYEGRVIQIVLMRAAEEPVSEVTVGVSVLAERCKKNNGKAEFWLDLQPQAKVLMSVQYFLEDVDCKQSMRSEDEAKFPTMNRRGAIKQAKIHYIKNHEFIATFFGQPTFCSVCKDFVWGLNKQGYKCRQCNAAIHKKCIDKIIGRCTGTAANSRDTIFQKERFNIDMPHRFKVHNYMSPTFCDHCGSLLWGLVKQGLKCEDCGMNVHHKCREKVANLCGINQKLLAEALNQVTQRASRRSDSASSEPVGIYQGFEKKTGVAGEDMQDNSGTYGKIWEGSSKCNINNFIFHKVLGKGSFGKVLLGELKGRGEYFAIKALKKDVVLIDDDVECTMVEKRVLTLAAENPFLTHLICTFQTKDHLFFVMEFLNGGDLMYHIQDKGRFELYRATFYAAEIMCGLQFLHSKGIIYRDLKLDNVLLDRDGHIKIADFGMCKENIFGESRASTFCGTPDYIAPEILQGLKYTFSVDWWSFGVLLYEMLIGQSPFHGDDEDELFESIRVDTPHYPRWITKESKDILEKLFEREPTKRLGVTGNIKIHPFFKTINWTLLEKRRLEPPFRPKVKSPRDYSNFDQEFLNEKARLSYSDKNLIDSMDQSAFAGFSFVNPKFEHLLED

Compound	residual activity [1] [%]	residual activity [2] [%]	residual activity [3] [%]	residual activity [4] [%]	residual activity [5] [%]	residual activity [6] [%]	residual activity [7] [%]	residual activity [8] [%]	residual activity [9] [%]	residual activity [10] [%]	residual activity [11] [%]	residual activity [12] [%]
COc1cc2c(Oc3ccc(-c4nc5ccccc5s4)cc3F)ncnc2cc1OCCCN1CCN(C)CC1	86	90	79	102	41	26	113	86	93	142	98	397
COc1cc2c(Oc3ccc(-c4nc5ccccc5s4)cc3)ncnc2cc1OCCCN1CCCC1	97	95	83	108	54	47	79	72	102	162	103	322
COc1cc2c(Oc3ccc(-c4nc5ccccc5s4)cc3)ncnc2cc1OCCCN1CCN(C)CC1	85	84	86	112	56	32	112	86	101	135	102	406
